# Experimental data taken from US20140303386A1, “COMPOSITIONS AND METHODS FOR ENHANCING LIPID PRODUCTION IN […] INDUCTION OF CELL CYCLE ARREST” (RUTGERS, THE STATE UNIVERSITY OF NEW JERSEY, priority 2011, published 2014).
# Columns and labels:
# Type in all cases: cell-based
# [1] = tested on: marine diatom Phaeodactylum tricornutum; assay: Cell cycle analysis (propidium iodide DNA stain, flow cytometry); details: higher dose of inhibitor
# Description: (§1) Cultures were grown in continuous light at approximately 70 μmol quanta m^−2s^−1, in nutrient-replete conditions (F/2 media). […] The CDK inhibitor was applied when cells were growing exponentially (cell concentration was between 250,000-700,000 cells/ml).
# [2] = tested on: marine diatom Phaeodactylum tricornutum; assay: Fatty acid content / synthesis per cell
# Description: as §1
# [3] = tested on: marine diatom Phaeodactylum tricornutum; assay: Protein synthesis in treated cells; details: treated vs untreated cells
# Description: as §1
# [4] = tested on: marine diatom Phaeodactylum tricornutum; assay: Photosynthetic health (Fv/Fm, chlorophyll per cell, a*); details: treated vs untreated cells
# Description: as §1
structure (smiles),measurement,setting,value
"Nc1nc(OCC2CCCCC2)c2nc[nH]c2n1 [NU 2058, 6-(Cyclohexylmethoxy)-9H-purin-2-amine]",percentage of cells arrested in G1,[1],higher percentage of cells arrested in G1
same,increase in fatty acid synthesis compared to untreated cells,"[2]; 7 μM, over a period of one day",80%
same,fatty acid content per cell,[2]; higher dose of inhibitor,higher fatty acid content per cell
same,"protein synthesis, lower than in untreated cells",[3],about 18%
same,"photosynthetic capacity (Fv/Fm, chlorophyll per cell, a*)",[4],no appreciable differences
